Several values for one entry are separate records, joined by “and”; a condition that tells them apart may be missing. Equal values may be shown once. sCy5 = sulfo-Cy5
Key:
[1] = system: WT BMDC with OT-I T cells; assay: T cell proliferation assay (cross-presentation to OT-I T cells), WT BMDC; type: cell-based, mouse; conditions: Fig 4f source data; 40 nM SLP pulse 2 h, MPLA-matured BMDC, 3 d coculture with OT-I; per experiment, two technical replicates
Protocol: A 70 µm filter was placed on a 50 mL tube and pre-wetted with PBS supplemented with 2 mM EDTA and 2% FCS (single-cell suspension buffer, SCSB). Freshly harvested spleens from OT-I transgenic mice were placed on the filter and disrupted with the back end of a syringe. After thorough washing, the suspension was centrifuged (10 min., 300 rcf, rt). Next, the pellet was gently resuspended in 2 mL of ACK lysing buffer (Gibco, A1049201). After 3 min incubation, the suspension was diluted with 10 mL PBS, filtered once more, and centrifuged again (300 rcf, 10 min, rt). The pellet was resuspended and subjected to magnetically-activated depletion of non-target cells using the “Naïve CD8a+ T cell isolation Kit” (Miltenyi, 130-096-543) according to manufacturer’s protocol. The obtained T cells were counted and resuspended at a density of 5-15 x 10^6/mL in 1 mL PBS with 5 µM CFSE (Biolegend) and incubated for 15 min. at 37 °C. After incubation, cells were spun down (10 min, 300 rcf, rt), washed once more with complete RPMI-1640 and were ready for downstream use.
5 x 10^4 WT, MR^−/− BMDC or 1 x 10^5 splenic DC were seeded in 96-well Nunc U-bottom plates (Thermo Scientific, 168136) and pulsed with Glycan SLP at 40 nM for indicated time. In indicated experiments, DC were pretreated with 1 µg/mL MPLA (Avanti, 699800 P) for 2 h before antigen pulse. After antigen pulse was finished, the plate was spun down for 3 min at 600 rcf, washed once with complete RPMI-1640 and 1-1.5E5 freshly isolated, CFSE-stained OT-I T cells were added to the pulsed DCs in 200 µL complete RPMI-1640 and incubated at 37 °C. After 3 d of coculture, the plate was spun down (3 min, 600 rcf, 4 °C) and supernatant was removed and stored at −80 °C. Cells were washed with FACS buffer (PBS with 2 mM EDTA, 2% FCS and 7.4 mM NaN3) and stained with Aqua Live/DEAD (Invitrogen, L34957, 1:500), TruStain FcX (Biolegend, 101319, 1:100), CD8a—APC (clone: 53-7.6, Biolegend, 100711, 1:200), and TCR V beta 5.1/5.2—eFluor450 (clone: MR9-4, eBioscience, 48-5796-82) for 30 min on ice, washed two times and acquired on a BD Fortessa I flow cytometer and analyzed using FlowJo v8. To calculate mean cycle, the CFSE dilution factor was obtained by dividing the MFI of the antigen pulsed condition by the DMSO pulsed condition expressed as Log2[69]. Statistical analysis and plotting were performed using GraphPad Prism V10.

WT BMDC (CD11c+) = assay: Glycan SLP uptake by flow cytometry (phagocytic index), WT BMDC; type: cell-based, mouse; conditions: for phagocytic index: Fig 4d source data, BMDC incubated 1 h with probe, CD11c+ cells, per experiment, two technical replicates
Protocol: 2.5 x 10^5 WT, MR^−/− BMDC or BMDM were seeded after treatment with polarizing stimulus as described below in a 96 well v-bottom plate (Sarstedt, 82.1583001). The next day, Glycan SLP probes were added to the cells at 250 nM and incubated for 1 h at 37 °C. Active uptake was halted by addition of ice-cold PBS and washed twice with PBS + 2% FCS + 2 mM EDTA (300 rcf, 5 min., rt). Cells were stained with a selection of the following stains and antibodies: Zombie Yellow (Biolegend, 423103, 1:500), TruStain FcX (Biolegend, cat no 101319, 1:100), CD11c - eFluor450 (clone: N418, eBioscience, cat no 48-0114-82, dilution 1:200), CD206-AF488 or AF647 (clone: MR5D3, Biorad, MCA2235A488T, 1:20), CD86-PerCP (Biolegend, cat no 105025, clone GL-1, 1:200), F4/80-APC-Cy7 (Biolegend, cat no 123117, clone BM8, dilution 1:400), MHC-II-AF488 (Biolegend, cat no 107615, clone M5/114.15.2, dilution 1:1000) for 30 min. on ice. Then cells were washed twice with PBS + 2% FCS + 2 mM EDTA and acquired on Guava EasyCyte 12HT. For BMDM uptake and characterization, an identical procedure was followed but acquisition was performed on Sony ID7000 spectral flow cytometer. Analysis was performed using FlowJo v8. Phagocytic index (PI) was calculated according to equation 1. Statistical analysis and plotting were performed using GraphPad Prism V10.1 PI=%sCy5^+cellsxMFIsCy5^+cells−%sCy5^−cellsxMFIsCy5^−cells

Substance	average number of cell divisions per T cell (mean cycles) [1]	phagocytic index (WT BMDC (CD11c+))	uptake (phagocytic index) by BMDC (WT BMDC (CD11c+); 1 h incubation, sCy5 signal by flow cytometry)
Ac-Lys(Man)-Gly-Lys(Man)-TEG-Asp-Glu-Val-Ser-Gly-Leu-Glu-Gln-Leu-Glu-Ser-Ile-Ile-Asn-Phe-Glu-Lys-Leu-Ala-Ala-Ala-Ala-Ala-Lys(sCy5)-NH2 ({Ac-K(Man)-Gly-K(Man)-TEG}-DEVSGLEQLESIINFEKLAAAAAK(sCy5)-NH2) [2 Mono(2), bivalent monomannosylated OVA SLP with sulfo-Cy5]	1.851 and 1.961 and 2.178 and 1.94 and 2.008 and 2.005	468.878 and 326.94 and 575.997 and 867.184 and 474 and -18	–
Ac-Lys(Man)-Lys(Man)-Lys(Man)-Lys(Man)-Lys(Man)-Lys(Man)-TEG-Asp-Glu-Val-Ser-Gly-Leu-Glu-Gln-Leu-Glu-Ser-Ile-Ile-Asn-Phe-Glu-Lys-Leu-Ala-Ala-Ala-Ala-Ala-Lys(sCy5)-NH2 ({Ac-K(Man)-K(Man)-K(Man)-K(Man)-K(Man)-K(Man)-TEG}-DEVSGLEQLESIINFEKLAAAAAK(sCy5)-NH2) [6 Mono(3), hexavalent monomannosylated OVA SLP with sulfo-Cy5]	1.958 and 1.615 and 1.514 and 1.427 and 1.57 and 1.31	351.961 and 267.849 and 647.297 and 867.13 and 676 and 415	–
Ac-Lys(Man)-TEG-Asp-Glu-Val-Ser-Gly-Leu-Glu-Gln-Leu-Glu-Ser-Ile-Ile-Asn-Phe-Glu-Lys-Leu-Ala-Ala-Ala-Ala-Ala-Lys(sCy5)-NH2 ({Ac-K(Man)-TEG}-DEVSGLEQLESIINFEKLAAAAAK(sCy5)-NH2) [1 Mono(1), monovalent monomannosylated OVA SLP with sulfo-Cy5]	2.424 and 2.329 and 2.498 and 2.6657 and 2.752 and 2.248	18.2246 and 7.8718 and 19.8915 and 23.9776 and -43 and 24	–
Ac-Lys(triMan)-Gly-Lys(triMan)-TEG-Asp-Glu-Val-Ser-Gly-Leu-Glu-Gln-Leu-Glu-Ser-Ile-Ile-Asn-Phe-Glu-Lys-Leu-Ala-Ala-Ala-Ala-Ala-Lys(sCy5)-NH2 (DEVSGLEQLESIINFEKLAAAAAK; two Lys(triMan), TEG, sulfo-Cy5, C-amide; printed: Asp-Glu-Val-Ser-Gly-Leu-Glu-Gln-Leu-Glu-Ser-Ile-Ile-Asn-Phe-Glu-Lys-Leu-Ala-Ala-Ala-Ala-Ala-Lys) [2 Tri(5), bivalent trimannosylated OVA SLP with sulfo-Cy5]	0.8018 and 0.6166 and 1.144 and 1.271 and 1.393 and 1.229	739.67 and 711.569 and 1725.6 and 1909.99 and 2022 and 1371	most effectively taken up
Ac-Lys(triMan)-Lys(triMan)-Lys(triMan)-Lys(triMan)-Lys(triMan)-Lys(triMan)-TEG-Asp-Glu-Val-Ser-Gly-Leu-Glu-Gln-Leu-Glu-Ser-Ile-Ile-Asn-Phe-Glu-Lys-Leu-Ala-Ala-Ala-Ala-Ala-Lys(sCy5)-NH2 (DEVSGLEQLESIINFEKLAAAAAK; six Lys(triMan), TEG, sulfo-Cy5, C-amide; printed: Asp-Glu-Val-Ser-Gly-Leu-Glu-Gln-Leu-Glu-Ser-Ile-Ile-Asn-Phe-Glu-Lys-Leu-Ala-Ala-Ala-Ala-Ala-Lys) [6 Tri(6), hexavalent trimannosylated OVA SLP with sulfo-Cy5]	0.3003 and 0.3873 and 0.4343 and 0.4095 and 0.438	418.118 and 415.333 and 1097.76 and 913.574 and 294 and 434	–
Ac-Lys(triMan)-TEG-Asp-Glu-Val-Ser-Gly-Leu-Glu-Gln-Leu-Glu-Ser-Ile-Ile-Asn-Phe-Glu-Lys-Leu-Ala-Ala-Ala-Ala-Ala-Lys(sCy5)-NH2 (DEVSGLEQLESIINFEKLAAAAAK; Ac-Lys(triMan)-TEG, sulfo-Cy5, C-amide; printed: Asp-Glu-Val-Ser-Gly-Leu-Glu-Gln-Leu-Glu-Ser-Ile-Ile-Asn-Phe-Glu-Lys-Leu-Ala-Ala-Ala-Ala-Ala-Lys) [1 Tri(4), monovalent trimannosylated OVA SLP with sulfo-Cy5]	1.87 and 1.461 and 1.875 and 1.671 and 1.661 and 1.884	866.48 and 744.547 and 660.373 and 1168.46 and 1459 and 1224	–

— publication PMC12830989, “Subcellular glycan-mannose receptor binding kinetics correlate with myeloid cell function” (Nature Communications, 2025)
